# Measured values as given in the kinase profiling compilation of Christmann-Franck et al. (2016).
# Target: MAPKAPK5 (human) (UniProt Q8IW41)
# Test: radiometric filter-binding kinase assay, Kinase HotSpot
# Details: compound 0.5 µM; ATP 10 µM
row,SMILES,residual activity
1,CC(C)[C@H](CO)Nc1nc(Nc2cccc(Cl)c2)c2ncn(C(C)C)c2n1,97.6%
2,COc1ccc(-c2cnc3c(-c4ccsc4)cnn3c2)cc1,90.7%
3,CSc1nc(-c2ccc(F)cc2)c(-c2ccnc(NC(C)c3ccccc3)c2)[nH]1 (centres undefined),115%
4,Clc1ccc(Nc2nnc(Cc3ccncc3)c3ccccc23)cc1,97.8%

# Target: MARK1 (human) (UniProt Q9P0L2)
# Test: as above
# Details: compound 0.5 µM; ATP 10 µM
row,SMILES,residual activity
1,CC(C)[C@H](CO)Nc1nc(Nc2cccc(Cl)c2)c2ncn(C(C)C)c2n1,94.5%
2,COc1ccc(-c2cnc3c(-c4ccsc4)cnn3c2)cc1,98.9%
3,CSc1nc(-c2ccc(F)cc2)c(-c2ccnc(NC(C)c3ccccc3)c2)[nH]1 (centres undefined),95.3%
4,Clc1ccc(Nc2nnc(Cc3ccncc3)c3ccccc23)cc1,124%

# Target: MARK2 (human) (UniProt Q7KZI7)
# Test: as above
# Details: compound 0.5 µM; ATP 10 µM
row,SMILES,residual activity
1,CC(C)[C@H](CO)Nc1nc(Nc2cccc(Cl)c2)c2ncn(C(C)C)c2n1,95.7%
2,COc1ccc(-c2cnc3c(-c4ccsc4)cnn3c2)cc1,82.1%
3,CSc1nc(-c2ccc(F)cc2)c(-c2ccnc(NC(C)c3ccccc3)c2)[nH]1 (centres undefined),90.7%
4,Clc1ccc(Nc2nnc(Cc3ccncc3)c3ccccc23)cc1,133%

# Target: MUSK (human) (UniProt O15146)
# Sequence (O15146 whole entry, looked up): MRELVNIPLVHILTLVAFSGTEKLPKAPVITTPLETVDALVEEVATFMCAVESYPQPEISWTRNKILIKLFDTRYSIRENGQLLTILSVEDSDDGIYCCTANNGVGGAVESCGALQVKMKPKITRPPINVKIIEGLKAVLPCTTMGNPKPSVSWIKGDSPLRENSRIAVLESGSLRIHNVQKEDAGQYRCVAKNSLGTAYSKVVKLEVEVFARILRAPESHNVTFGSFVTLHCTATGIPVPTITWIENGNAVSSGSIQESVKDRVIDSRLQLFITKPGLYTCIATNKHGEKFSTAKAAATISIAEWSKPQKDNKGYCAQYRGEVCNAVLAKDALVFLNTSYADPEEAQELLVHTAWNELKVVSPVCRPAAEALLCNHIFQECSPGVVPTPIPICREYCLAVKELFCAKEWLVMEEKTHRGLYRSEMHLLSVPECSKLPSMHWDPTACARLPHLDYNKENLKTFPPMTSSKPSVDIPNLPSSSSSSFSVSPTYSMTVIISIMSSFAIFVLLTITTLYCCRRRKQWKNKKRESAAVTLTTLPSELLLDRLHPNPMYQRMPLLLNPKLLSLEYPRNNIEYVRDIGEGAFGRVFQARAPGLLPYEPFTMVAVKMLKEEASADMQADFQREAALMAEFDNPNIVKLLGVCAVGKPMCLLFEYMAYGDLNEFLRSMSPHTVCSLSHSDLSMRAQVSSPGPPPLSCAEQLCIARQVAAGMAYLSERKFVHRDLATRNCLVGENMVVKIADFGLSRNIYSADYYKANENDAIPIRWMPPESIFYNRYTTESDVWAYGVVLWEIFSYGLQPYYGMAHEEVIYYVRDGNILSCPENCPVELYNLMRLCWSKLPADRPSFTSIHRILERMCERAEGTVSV
# Test: as above
# Details: compound 0.5 µM; ATP 10 µM
row,SMILES,residual activity
1,CC(C)[C@H](CO)Nc1nc(Nc2cccc(Cl)c2)c2ncn(C(C)C)c2n1,56.8%
2,COc1ccc(-c2cnc3c(-c4ccsc4)cnn3c2)cc1,74.9%
3,CSc1nc(-c2ccc(F)cc2)c(-c2ccnc(NC(C)c3ccccc3)c2)[nH]1 (centres undefined),101%
4,Clc1ccc(Nc2nnc(Cc3ccncc3)c3ccccc23)cc1,105%

# Target: PAK4 (human) (UniProt O96013)
# Test: as above
# Details: compound 0.5 µM; ATP 10 µM
row,SMILES,residual activity
1,CC(C)[C@H](CO)Nc1nc(Nc2cccc(Cl)c2)c2ncn(C(C)C)c2n1,99.5%
2,COc1ccc(-c2cnc3c(-c4ccsc4)cnn3c2)cc1,72.5%
3,CSc1nc(-c2ccc(F)cc2)c(-c2ccnc(NC(C)c3ccccc3)c2)[nH]1 (centres undefined),96.4%
4,Clc1ccc(Nc2nnc(Cc3ccncc3)c3ccccc23)cc1,95.8%

# Target: PDPK1 (human) (UniProt O15530)
# Test: as above
# Details: compound 0.5 µM; ATP 10 µM
row,SMILES,residual activity
1,CC(C)[C@H](CO)Nc1nc(Nc2cccc(Cl)c2)c2ncn(C(C)C)c2n1,91.6%
2,COc1ccc(-c2cnc3c(-c4ccsc4)cnn3c2)cc1,96%
3,CSc1nc(-c2ccc(F)cc2)c(-c2ccnc(NC(C)c3ccccc3)c2)[nH]1 (centres undefined),91.3%
4,Clc1ccc(Nc2nnc(Cc3ccncc3)c3ccccc23)cc1,88.3%

# Target: PHKG1 (human) (UniProt Q16816)
# Sequence (Q16816 whole entry, looked up): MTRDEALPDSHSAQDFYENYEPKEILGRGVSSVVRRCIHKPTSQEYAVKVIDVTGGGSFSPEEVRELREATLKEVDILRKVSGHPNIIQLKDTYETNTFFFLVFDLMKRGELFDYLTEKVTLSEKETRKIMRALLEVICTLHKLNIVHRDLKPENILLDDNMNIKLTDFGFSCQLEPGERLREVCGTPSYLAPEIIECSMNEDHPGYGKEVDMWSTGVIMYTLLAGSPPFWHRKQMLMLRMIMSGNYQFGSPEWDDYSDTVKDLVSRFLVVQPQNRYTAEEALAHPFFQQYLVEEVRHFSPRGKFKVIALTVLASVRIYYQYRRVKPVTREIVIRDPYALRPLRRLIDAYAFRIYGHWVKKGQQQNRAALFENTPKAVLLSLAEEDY
# Test: as above
# Details: compound 0.5 µM; ATP 10 µM
row,SMILES,residual activity
1,CC(C)[C@H](CO)Nc1nc(Nc2cccc(Cl)c2)c2ncn(C(C)C)c2n1,89.9%
2,COc1ccc(-c2cnc3c(-c4ccsc4)cnn3c2)cc1,73.2%
3,CSc1nc(-c2ccc(F)cc2)c(-c2ccnc(NC(C)c3ccccc3)c2)[nH]1 (centres undefined),91.8%
4,Clc1ccc(Nc2nnc(Cc3ccncc3)c3ccccc23)cc1,94.2%

# Target: PIM1 (human) (UniProt P11309)
# Sequence (P11309 whole entry, looked up): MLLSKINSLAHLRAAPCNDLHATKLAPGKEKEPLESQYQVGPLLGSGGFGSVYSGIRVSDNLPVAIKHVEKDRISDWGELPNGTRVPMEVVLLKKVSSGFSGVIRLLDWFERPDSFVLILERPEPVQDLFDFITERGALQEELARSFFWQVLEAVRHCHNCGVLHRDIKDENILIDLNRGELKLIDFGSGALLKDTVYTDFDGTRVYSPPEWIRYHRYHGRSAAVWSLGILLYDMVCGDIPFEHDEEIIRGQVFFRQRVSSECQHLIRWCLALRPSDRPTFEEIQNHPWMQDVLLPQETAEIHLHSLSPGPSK
# Test: as above
# Details: compound 0.5 µM; ATP 10 µM
row,SMILES,residual activity
1,CC(C)[C@H](CO)Nc1nc(Nc2cccc(Cl)c2)c2ncn(C(C)C)c2n1,104%
2,COc1ccc(-c2cnc3c(-c4ccsc4)cnn3c2)cc1,97.5%
3,CSc1nc(-c2ccc(F)cc2)c(-c2ccnc(NC(C)c3ccccc3)c2)[nH]1 (centres undefined),91.8%
4,Clc1ccc(Nc2nnc(Cc3ccncc3)c3ccccc23)cc1,102%

# Target: PIM3 (human) (UniProt Q86V86)
# Test: as above
# Details: compound 0.5 µM; ATP 10 µM
row,SMILES,residual activity
1,CC(C)[C@H](CO)Nc1nc(Nc2cccc(Cl)c2)c2ncn(C(C)C)c2n1,84.9%
2,COc1ccc(-c2cnc3c(-c4ccsc4)cnn3c2)cc1,100%
3,CSc1nc(-c2ccc(F)cc2)c(-c2ccnc(NC(C)c3ccccc3)c2)[nH]1 (centres undefined),95.5%
4,Clc1ccc(Nc2nnc(Cc3ccncc3)c3ccccc23)cc1,98.9%

# Target: PLK2 (human) (UniProt Q9NYY3)
# Sequence (Q9NYY3 whole entry, looked up): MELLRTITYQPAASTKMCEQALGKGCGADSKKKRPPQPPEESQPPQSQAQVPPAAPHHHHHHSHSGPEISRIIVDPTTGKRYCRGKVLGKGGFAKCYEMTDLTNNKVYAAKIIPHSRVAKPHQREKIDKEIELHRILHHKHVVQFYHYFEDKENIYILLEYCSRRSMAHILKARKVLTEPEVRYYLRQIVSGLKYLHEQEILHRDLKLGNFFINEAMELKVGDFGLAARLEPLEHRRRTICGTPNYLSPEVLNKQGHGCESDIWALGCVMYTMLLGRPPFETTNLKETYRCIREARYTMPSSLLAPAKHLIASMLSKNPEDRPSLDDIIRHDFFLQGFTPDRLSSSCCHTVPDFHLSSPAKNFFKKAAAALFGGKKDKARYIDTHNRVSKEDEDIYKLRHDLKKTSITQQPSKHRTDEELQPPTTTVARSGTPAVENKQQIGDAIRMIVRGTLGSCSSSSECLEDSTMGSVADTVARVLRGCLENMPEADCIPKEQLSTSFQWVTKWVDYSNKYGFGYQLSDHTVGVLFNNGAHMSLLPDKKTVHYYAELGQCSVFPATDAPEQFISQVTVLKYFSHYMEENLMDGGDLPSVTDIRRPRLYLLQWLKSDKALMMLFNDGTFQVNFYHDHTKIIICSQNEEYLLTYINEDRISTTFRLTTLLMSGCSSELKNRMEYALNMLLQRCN
# Test: as above
# Details: compound 0.5 µM; ATP 10 µM
row,SMILES,residual activity
1,CC(C)[C@H](CO)Nc1nc(Nc2cccc(Cl)c2)c2ncn(C(C)C)c2n1,102%
2,COc1ccc(-c2cnc3c(-c4ccsc4)cnn3c2)cc1,100%
3,CSc1nc(-c2ccc(F)cc2)c(-c2ccnc(NC(C)c3ccccc3)c2)[nH]1 (centres undefined),94.3%
4,Clc1ccc(Nc2nnc(Cc3ccncc3)c3ccccc23)cc1,101%

# Target: PLK3 (human) (UniProt Q9H4B4)
# Test: as above
# Details: compound 0.5 µM; ATP 10 µM
row,SMILES,residual activity
1,CC(C)[C@H](CO)Nc1nc(Nc2cccc(Cl)c2)c2ncn(C(C)C)c2n1,86.4%
2,COc1ccc(-c2cnc3c(-c4ccsc4)cnn3c2)cc1,98%
3,CSc1nc(-c2ccc(F)cc2)c(-c2ccnc(NC(C)c3ccccc3)c2)[nH]1 (centres undefined),99.7%
4,Clc1ccc(Nc2nnc(Cc3ccncc3)c3ccccc23)cc1,100%

# Target: PRKCA (human) (UniProt P17252)
# Test: as above
# Details: compound 0.5 µM; ATP 10 µM
row,SMILES,residual activity
1,CC(C)[C@H](CO)Nc1nc(Nc2cccc(Cl)c2)c2ncn(C(C)C)c2n1,115%
2,COc1ccc(-c2cnc3c(-c4ccsc4)cnn3c2)cc1,101%
3,CSc1nc(-c2ccc(F)cc2)c(-c2ccnc(NC(C)c3ccccc3)c2)[nH]1 (centres undefined),108%
4,Clc1ccc(Nc2nnc(Cc3ccncc3)c3ccccc23)cc1,75.8%

# Target: PRKCD (human) (UniProt Q05655)
# Test: as above
# Details: compound 0.5 µM; ATP 10 µM
row,SMILES,residual activity
1,CC(C)[C@H](CO)Nc1nc(Nc2cccc(Cl)c2)c2ncn(C(C)C)c2n1,104%
2,COc1ccc(-c2cnc3c(-c4ccsc4)cnn3c2)cc1,98.9%
3,CSc1nc(-c2ccc(F)cc2)c(-c2ccnc(NC(C)c3ccccc3)c2)[nH]1 (centres undefined),89.1%
4,Clc1ccc(Nc2nnc(Cc3ccncc3)c3ccccc23)cc1,97.4%

# Target: PRKCH (human) (UniProt P24723)
# Test: as above
# Details: compound 0.5 µM; ATP 10 µM
row,SMILES,residual activity
1,CC(C)[C@H](CO)Nc1nc(Nc2cccc(Cl)c2)c2ncn(C(C)C)c2n1,92.7%
2,COc1ccc(-c2cnc3c(-c4ccsc4)cnn3c2)cc1,111%
3,CSc1nc(-c2ccc(F)cc2)c(-c2ccnc(NC(C)c3ccccc3)c2)[nH]1 (centres undefined),94.5%
4,Clc1ccc(Nc2nnc(Cc3ccncc3)c3ccccc23)cc1,105%

# Target: PRKG2 (human) (UniProt Q13237)
# Test: as above
# Details: compound 0.5 µM; ATP 10 µM
row,SMILES,residual activity
1,CC(C)[C@H](CO)Nc1nc(Nc2cccc(Cl)c2)c2ncn(C(C)C)c2n1,89.3%
2,COc1ccc(-c2cnc3c(-c4ccsc4)cnn3c2)cc1,92%
3,CSc1nc(-c2ccc(F)cc2)c(-c2ccnc(NC(C)c3ccccc3)c2)[nH]1 (centres undefined),102%
4,Clc1ccc(Nc2nnc(Cc3ccncc3)c3ccccc23)cc1,101%

# Target: RPS6KA3 KD1 KD2 (human) (UniProt P51812)
# Test: as above
# Details: compound 0.5 µM; ATP 10 µM
row,SMILES,residual activity
1,CC(C)[C@H](CO)Nc1nc(Nc2cccc(Cl)c2)c2ncn(C(C)C)c2n1,86.3%
2,COc1ccc(-c2cnc3c(-c4ccsc4)cnn3c2)cc1,83.6%
3,CSc1nc(-c2ccc(F)cc2)c(-c2ccnc(NC(C)c3ccccc3)c2)[nH]1 (centres undefined),91%
4,Clc1ccc(Nc2nnc(Cc3ccncc3)c3ccccc23)cc1,101%

# Target: SGK2 (human) (UniProt Q9HBY8)
# Test: as above
# Details: compound 0.5 µM; ATP 10 µM
row,SMILES,residual activity
1,CC(C)[C@H](CO)Nc1nc(Nc2cccc(Cl)c2)c2ncn(C(C)C)c2n1,103%
2,COc1ccc(-c2cnc3c(-c4ccsc4)cnn3c2)cc1,96.7%
3,CSc1nc(-c2ccc(F)cc2)c(-c2ccnc(NC(C)c3ccccc3)c2)[nH]1 (centres undefined),96.1%
4,Clc1ccc(Nc2nnc(Cc3ccncc3)c3ccccc23)cc1,104%

# Target: TGFBR1 (human) (UniProt P36897)
# Test: as above
# Details: compound 0.5 µM; ATP 10 µM
row,SMILES,residual activity
1,CC(C)[C@H](CO)Nc1nc(Nc2cccc(Cl)c2)c2ncn(C(C)C)c2n1,103%
2,COc1ccc(-c2cnc3c(-c4ccsc4)cnn3c2)cc1,98%
3,CSc1nc(-c2ccc(F)cc2)c(-c2ccnc(NC(C)c3ccccc3)c2)[nH]1 (centres undefined),93.3%
4,Clc1ccc(Nc2nnc(Cc3ccncc3)c3ccccc23)cc1,96.8%

# Target: TYRO3 (human) (UniProt Q06418)
# Test: as above
# Details: compound 0.5 µM; ATP 10 µM
row,SMILES,residual activity
1,CC(C)[C@H](CO)Nc1nc(Nc2cccc(Cl)c2)c2ncn(C(C)C)c2n1,98.9%
2,COc1ccc(-c2cnc3c(-c4ccsc4)cnn3c2)cc1,91.8%
3,CSc1nc(-c2ccc(F)cc2)c(-c2ccnc(NC(C)c3ccccc3)c2)[nH]1 (centres undefined),108%
4,Clc1ccc(Nc2nnc(Cc3ccncc3)c3ccccc23)cc1,98.2%

# Target: WNK2 (human) (UniProt Q9Y3S1)
# Sequence (Q9Y3S1 whole entry, looked up): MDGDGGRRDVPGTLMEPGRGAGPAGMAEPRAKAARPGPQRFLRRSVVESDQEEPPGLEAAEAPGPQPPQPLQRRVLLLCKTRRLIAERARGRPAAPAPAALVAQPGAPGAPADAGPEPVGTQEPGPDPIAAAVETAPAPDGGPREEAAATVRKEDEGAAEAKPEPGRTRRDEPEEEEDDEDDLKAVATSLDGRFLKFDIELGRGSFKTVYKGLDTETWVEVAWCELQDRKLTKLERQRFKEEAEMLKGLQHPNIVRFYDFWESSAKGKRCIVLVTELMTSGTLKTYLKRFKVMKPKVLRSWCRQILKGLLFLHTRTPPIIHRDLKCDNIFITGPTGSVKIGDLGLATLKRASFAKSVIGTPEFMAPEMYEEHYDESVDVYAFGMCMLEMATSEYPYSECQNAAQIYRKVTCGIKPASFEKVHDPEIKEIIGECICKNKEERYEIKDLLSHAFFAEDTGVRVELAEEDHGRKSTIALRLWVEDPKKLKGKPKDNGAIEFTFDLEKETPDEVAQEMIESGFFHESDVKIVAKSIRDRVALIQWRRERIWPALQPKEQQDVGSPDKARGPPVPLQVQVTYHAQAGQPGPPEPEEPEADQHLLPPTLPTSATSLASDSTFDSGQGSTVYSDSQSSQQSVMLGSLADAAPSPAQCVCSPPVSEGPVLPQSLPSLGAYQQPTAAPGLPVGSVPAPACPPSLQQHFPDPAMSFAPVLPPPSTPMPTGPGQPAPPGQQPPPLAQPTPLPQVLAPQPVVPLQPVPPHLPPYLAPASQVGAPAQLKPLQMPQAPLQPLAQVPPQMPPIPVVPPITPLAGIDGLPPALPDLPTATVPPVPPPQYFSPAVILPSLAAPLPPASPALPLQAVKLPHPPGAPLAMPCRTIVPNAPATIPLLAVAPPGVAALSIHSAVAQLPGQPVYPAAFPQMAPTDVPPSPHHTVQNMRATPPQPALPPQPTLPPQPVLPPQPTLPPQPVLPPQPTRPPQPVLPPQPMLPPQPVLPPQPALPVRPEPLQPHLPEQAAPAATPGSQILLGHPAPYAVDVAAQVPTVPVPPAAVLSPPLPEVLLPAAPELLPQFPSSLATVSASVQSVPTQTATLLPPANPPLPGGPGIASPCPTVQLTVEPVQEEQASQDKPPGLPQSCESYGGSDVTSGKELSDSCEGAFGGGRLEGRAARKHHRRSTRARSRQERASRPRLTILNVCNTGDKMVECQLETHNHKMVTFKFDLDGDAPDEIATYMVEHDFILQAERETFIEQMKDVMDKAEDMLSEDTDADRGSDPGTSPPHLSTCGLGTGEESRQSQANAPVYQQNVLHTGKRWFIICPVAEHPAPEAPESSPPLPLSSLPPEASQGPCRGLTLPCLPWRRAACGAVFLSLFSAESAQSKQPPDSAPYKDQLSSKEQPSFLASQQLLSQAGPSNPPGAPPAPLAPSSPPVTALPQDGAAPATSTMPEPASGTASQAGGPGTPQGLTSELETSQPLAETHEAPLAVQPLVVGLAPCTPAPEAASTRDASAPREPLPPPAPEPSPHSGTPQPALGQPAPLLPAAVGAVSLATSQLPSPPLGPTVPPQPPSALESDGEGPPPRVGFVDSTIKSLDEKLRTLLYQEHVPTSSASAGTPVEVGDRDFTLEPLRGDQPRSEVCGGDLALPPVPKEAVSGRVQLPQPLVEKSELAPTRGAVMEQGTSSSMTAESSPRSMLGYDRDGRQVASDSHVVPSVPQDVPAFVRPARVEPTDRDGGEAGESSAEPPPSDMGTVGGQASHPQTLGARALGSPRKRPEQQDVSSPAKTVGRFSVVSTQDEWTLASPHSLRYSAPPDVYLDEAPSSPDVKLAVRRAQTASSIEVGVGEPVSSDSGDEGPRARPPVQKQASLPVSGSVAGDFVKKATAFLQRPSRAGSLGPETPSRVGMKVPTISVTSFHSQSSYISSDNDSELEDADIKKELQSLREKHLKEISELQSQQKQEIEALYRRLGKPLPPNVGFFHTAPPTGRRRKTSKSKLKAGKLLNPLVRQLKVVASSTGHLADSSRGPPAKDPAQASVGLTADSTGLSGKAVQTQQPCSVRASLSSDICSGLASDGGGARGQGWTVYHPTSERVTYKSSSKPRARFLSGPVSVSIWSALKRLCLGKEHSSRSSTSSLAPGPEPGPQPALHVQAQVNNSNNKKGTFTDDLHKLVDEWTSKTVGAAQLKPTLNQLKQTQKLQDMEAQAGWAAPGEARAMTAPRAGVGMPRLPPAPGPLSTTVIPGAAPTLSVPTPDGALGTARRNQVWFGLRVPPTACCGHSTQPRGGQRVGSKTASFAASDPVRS
# Test: as above
# Details: compound 0.5 µM; ATP 10 µM
row,SMILES,residual activity
1,CC(C)[C@H](CO)Nc1nc(Nc2cccc(Cl)c2)c2ncn(C(C)C)c2n1,92.4%
2,COc1ccc(-c2cnc3c(-c4ccsc4)cnn3c2)cc1,103%
3,CSc1nc(-c2ccc(F)cc2)c(-c2ccnc(NC(C)c3ccccc3)c2)[nH]1 (centres undefined),118%
4,Clc1ccc(Nc2nnc(Cc3ccncc3)c3ccccc23)cc1,96.3%

# Target: YES1 (human) (UniProt P07947)
# Test: as above
# Details: compound 0.5 µM; ATP 10 µM
row,SMILES,residual activity
1,CC(C)[C@H](CO)Nc1nc(Nc2cccc(Cl)c2)c2ncn(C(C)C)c2n1,21.2%
2,COc1ccc(-c2cnc3c(-c4ccsc4)cnn3c2)cc1,67.7%
3,CSc1nc(-c2ccc(F)cc2)c(-c2ccnc(NC(C)c3ccccc3)c2)[nH]1 (centres undefined),91.8%
4,Clc1ccc(Nc2nnc(Cc3ccncc3)c3ccccc23)cc1,93%
